{"source": "paper PMC11210812", "about": "“Assessment of polymeric mucin–drug interactions” (PLOS ONE, 2024)", "assay_in_all_cases": "mucin fluorescence quenching, Lineweaver-Burk fit", "format_in_all_cases": "binding", "key": {"MUC5B": {"target": "T1, MUC5B (Homo sapiens, UniProt Q9HC84)", "T1 construct": "native secreted polymeric gel-forming mucin, O-glycosylated, disulfide-linked; purified from human cell culture by two-step CsCl density gradient", "settings": "for Kd (μM) / MUC5B: PBS pH 7.4, 37 °C, unreliable (Kd above highest concentration tested)", "excerpt": "mucin fluorescence quenching, Lineweaver-Burk fit on MUC5B"}, "MUC5AC": {"target": "T2, MUC5AC (Homo sapiens, UniProt P98088)", "T2 construct": "native secreted polymeric gel-forming mucin, O-glycosylated, disulfide-linked; purified from human cell culture by two-step CsCl density gradient", "settings": "for Kd (μM) / MUC5AC: PBS pH 7.4, 37 °C, unreliable (Kd above highest concentration tested)", "excerpt": "mucin fluorescence quenching, Lineweaver-Burk fit on MUC5AC"}, "MUC2": {"target": "T3, MUC2 (Homo sapiens, UniProt Q02817)", "T3 construct": "native secreted polymeric gel-forming mucin, O-glycosylated, disulfide-linked; purified from human cell culture by two-step CsCl density gradient", "settings": "for Kd (μM) / MUC2: PBS pH 7.4, 37 °C, unreliable (Kd above highest concentration tested)", "excerpt": "mucin fluorescence quenching, Lineweaver-Burk fit on MUC2"}}, "data": [{"molecule": "O=c1[nH]cc(F)c(=O)[nH]1", "note": "[5-Fluorouracil]", "values": [{"measurement": "Kd", "setting": "MUC5B", "result": "143 ± 17", "unit": "µM"}, {"measurement": "Kd", "setting": "MUC5AC", "result": "124 ± 1.5", "unit": "µM"}, {"measurement": "Kd", "setting": "MUC2", "result": "136 ± 12.1", "unit": "µM"}]}, {"molecule": "Cc1cc(=O)n(-c2ccccc2)n1C", "note": "[Antipyrine]", "values": [{"measurement": "Kd (μM) / MUC5B", "setting": "MUC5B; drug 0-200 μM", "result": "386.0 ± 49.3", "unit": "µM"}, {"measurement": "Kd (μM) / MUC5AC", "setting": "MUC5AC; drug 0-200 μM", "result": "302.0 ± 6.7", "unit": "µM"}, {"measurement": "Kd (μM) / MUC2", "setting": "MUC2; drug 0-200 μM", "result": "393.1 ± 26.2", "unit": "µM"}]}, {"molecule": "COC1=CC(=O)C[C@@H](C)[C@]12Oc1c(Cl)c(OC)cc(OC)c1C2=O", "note": "[Griseofulvin]", "values": [{"measurement": "Kd (μM) / MUC5B", "setting": "MUC5B; drug 0-20 μM", "result": "29.9 ± 5.0", "unit": "µM"}, {"measurement": "Kd (μM) / MUC5AC", "setting": "MUC5AC; drug 0-20 μM", "result": "25.4 ± 1.6", "unit": "µM"}, {"measurement": "Kd (μM) / MUC2", "setting": "MUC2; drug 0-20 μM", "result": "45.3 ± 9.6", "unit": "µM"}]}, {"molecule": "CC(=O)O[C@H]1C(=O)[C@@]2(C)[C@H]([C@H](OC(=O)c3ccccc3)[C@]3(O)C[C@H](OC(=O)[C@H](O)[C@@H](NC(=O)c4ccccc4)c4ccccc4)C(C)=C1C3(C)C)[C@]1(OC(C)=O)CO[C@@H]1C[C@@H]2O", "note": "[Paclitaxel]", "values": [{"measurement": "Kd (μM) / MUC5B", "setting": "MUC5B; drug 0-200 μM", "result": "288.0 ± 24.9", "unit": "µM"}, {"measurement": "Kd", "setting": "MUC5AC", "result": "87.6 ± 7", "unit": "µM"}, {"measurement": "Kd", "setting": "MUC2", "result": "163 ± 39.1", "unit": "µM"}]}, {"molecule": "CO[C@H]1/C=C/O[C@@]2(C)Oc3c(C)c(O)c4c(O)c(c(/C=N/N5CCN(C)CC5)c(O)c4c3C2=O)NC(=O)/C(C)=C\\C=C\\[C@H](C)[C@H](O)[C@@H](C)[C@@H](O)[C@@H](C)[C@H](OC(C)=O)[C@@H]1C", "note": "[Rifampicin]", "values": [{"measurement": "Kd (μM) / MUC5B", "setting": "MUC5B; drug 0-10 μM", "result": "44.5 ± 7.1", "unit": "µM"}, {"measurement": "Kd (μM) / MUC5AC", "setting": "MUC5AC; drug 0-10 μM", "result": "15.0 ± 1.5", "unit": "µM"}, {"measurement": "Kd (μM) / MUC2", "setting": "MUC2; drug 0-10 μM", "result": "49.7 ± 6.2", "unit": "µM"}]}, {"molecule": "Cn1c(=O)c2[nH]cnc2n(C)c1=O", "note": "[Theophylline]", "values": [{"measurement": "Kd", "setting": "MUC5B", "result": "189 ± 7.2", "unit": "µM"}, {"measurement": "Kd", "setting": "MUC5AC", "result": "185 ± 5.6", "unit": "µM"}, {"measurement": "Kd (μM) / MUC2", "setting": "MUC2; drug 0-200 μM", "result": "390.2 ± 46.5", "unit": "µM"}]}]}
